Key:
[1] = PBS stability; format: physicochemical; settings: 37° C., 24 hrs
Description: (§1) 360 μL undiluted human male serum (Sigma; H4522) or PBS was kept at 37° C. for 15 min, followed by addition of 40 μL (500 uM) of relevant peptide and subsequent incubation at 37° C. For stability analysis, 45 μL samples was taken out at t=0 min and t=24 hrs, and samples quenched by addition of 50 μL 6M urea followed by incubation at 37° C. for additional 30 min. 50 μL 20% TCA (W7V) in acetone was added to each sample before incubation for at least 16 hrs at 5° C. Samples were centrifuged at 14.000×g for 30 min and supernatants collected and filtered using a 0.22 μm syringe filter. Samples were analyzed on an Acquity UPLC H-Class instrument using a C18 column with a 15 min 10-80% […] gradient. Remaining analyte (%) was calculated as the area under curve (AUC) of the main peak at indicated time points relative to the sample at t=0 min.

[2] = Plasma stability; format: in vitro ADME; settings: human, 37° C., 24 h incubation
Description: as §1

[3] = biological target: T1, PICK1 pre-bound to TacDAT C24 (Rattus norvegicus, UniProt Q9EP80); assay: SCMS dissociation of pre-bound PICK1; format: binding; settings: pre-bound PICK1 on TacDAT C24 SCMS
T1 construct: Partner: transfected HEK293-GT cells, ruptured into membrane sheets
T1 sequence (Q9EP80 whole entry): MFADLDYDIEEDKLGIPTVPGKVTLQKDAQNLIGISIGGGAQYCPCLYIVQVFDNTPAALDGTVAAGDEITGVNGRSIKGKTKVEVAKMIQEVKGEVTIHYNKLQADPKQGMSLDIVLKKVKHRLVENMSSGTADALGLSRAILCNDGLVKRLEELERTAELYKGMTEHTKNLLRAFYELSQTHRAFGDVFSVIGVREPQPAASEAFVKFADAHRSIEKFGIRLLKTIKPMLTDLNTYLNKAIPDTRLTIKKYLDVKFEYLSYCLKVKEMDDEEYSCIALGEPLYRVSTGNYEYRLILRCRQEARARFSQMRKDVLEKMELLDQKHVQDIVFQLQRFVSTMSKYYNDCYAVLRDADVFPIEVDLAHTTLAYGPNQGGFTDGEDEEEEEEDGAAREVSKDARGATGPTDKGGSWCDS
Description: Human Embryo Kidney 293 GripTite cells (HEK293-GT) for SCMS were grown i in Dulbecco's modified Eagle's medium 1965 with fetal calf serum and pen-strep antibiotics. Cells were transfected using TAC-YFP-DATC24 DNA (pEYFP-C1 vector) and lipovectamin in opti-MEM® overnight. Cells were washed once with PBS and detached using 0.5% Trypsin with EDTA. Cells were then seeded into 6-well plates and allowed to grow and attach overnight at 37° C. in humidified 10% CO2 atmosphere.
The SCMS was prepared as described in (Perez et al., 2006). In brief, round cover glasses were plasma cleaned and coated with 0.3 mM poly-L-ornithine hydrobromide (Poly-ORN) for 30 min. The coating Poly-ORN was then removed. Seeded and transfected cells were then washed twice to allow them to swell. The swelled cells were then covered with the cover glass with the Poly-ORN coated side facing down on the cells. Dynamic pressure was manually applied to the cover glass using the piston from a 12 ml plastic syringe for a total of 1 min. The force from removing the cover glass causes some cells to rupture and leave a SCMS on the surface of the cover glass. […] A protein solution was then added to the cover glass and left to incubate for the desired amount of time depending on the experiment. […] The protein: peptide solution was then added to the SCMS-cover glass and incubated for 2 hours. […]

[4] = system: SNI mice; assay: Spared nerve injury (SNI) model, Von Frey test, intrathecal or i.p. administration; format: in vivo
Description: Spared nerve injury model (SNI) was performed according to methods described in Richner et al., 2011. Briefly, under isoflurane (2%) anaesthesia, the skin on the left lateral surface of the thigh was incised and the biceps femoris muscle was divided and spread lengthwise to expose the three branches of the sciatic nerve. After exposing the three branches (common peroneal, tibial and sural) in anesthetized mice, the common peroneal and tibial branches were carefully segregated from surrounding tissues, tightly ligated and axotomized ˜2 mm of the distal nerve stump, while the sural branch was left intact.
Drugs were administered either intrathecally to anesthetized mice or intraperitoneally (i.p.).
The development and level of mechanical threshold was determined in the affected hind paws 2 days after the SNI procedure by using Von Frey filaments ranging from 0.02 to 1.4 g. In the current experiments filaments in ascending order were applied to the lateral part of the hind paws. Each Von Frey hair was applied five times over a total period of 30 seconds and the mouse's reaction was assessed after each application; the threshold for a positive test was set at 3 trials, which evoked responses out of a maximum of 5 trials. […] Forces of the instrument are measured with units “g” and represent the gram-forces. […]

[5] = biological target: T2, PICK1 PDZ domain (Rattus norvegicus, UniProt Q9EP80); assay: Fluorescence polarization competition binding to PICK1 (Example 1); settings: PEGx dimerization of C5
T2 construct: made in house; host or cells: E. coli BL21-DE3-pLysS
T2 sequence (Q9EP80 whole entry, the tested form may be a part): as the sequence (Q9EP80 whole entry) above
Description: Protein expression was induced with 10 mM Isopropyl β-D-1-thiogalactopyranoside (IPTG) and grown overnight at 20° C. […] Resuspended pellet was frozen at −80° C. to induce cell lysis. The bacterial suspension was thawed and cleared by centrifugation. The supernatant was collected and incubated with Glutathione-Sepharose 4B beads for 2 hrs at 4° C. under gentle rotation. […] Washed beads were transferred to a PD10 gravity column. Bead solution was incubated with thrombin protease overnight at 4° C. under gentle rotation.
Fluorescence polarization was carried out in saturation mode and competition mode.

[6] = system: PICK1; assay: Peptide accumulation in striatal neurons with PICK1 knock down or replacement; format: cell-based, rat; settings: 5 nM, 1 hour
Source text: For shRNA-mediated knock down and replacement studies of PICK1, striatal neurons were transduced at 14 DIV with three different lentivirus; FUGWH1sh18GFPPICK1 (GFP-PICK1WT), FUGWH1sh18eGFP (GFP-sh18) or FUGWH1sh18deleGFP (GFP). The replacement plasmid GFP-PICK1WT expresses a short hairpin (sh18) that targets endogenous PICK1 and a resistant eGFP tagged PICK1. The GFP control vector (GFP) was created by removing the short hairpin (Holst et al., 2013, Jensen et al., 2018). Lentiviruses were produced as described previously (Rasmussen et al., 2009).
Neurons were rinsed in PBS and blocked in 0.05% Triton-X100 with 5% goat serum for 20 min-at room temperature. Subsequently, neurons were labelled with rabbit anti-DARRP32 (1:800) and chicken anti-GFP (1:2000) for 1 hour at room temperature, before incubation with 1:500 goat anti-rabbit Alexa-647 and goat anti-chicken Alexa-488 secondary antibodies.
Images for quantification of peptide were acquired with a Zeiss LSM 710 laser-scanning microscopy. Quantification of the TMR-TAT-P4-(C5)2 intensity was performed by defining each neuron as a region of interest. The mean intensity values obtained from each neuron were subsequently normalized to the average of the intensity values of the GFP transduced neurons

In the case of `CC(C)C[C@H](NC(=O)[C@H](Cc1c[nH]c2ccccc12)NC(=O)[C@@H](N)Cc1cnc[nH]1)C(=O)N[C@@H](CCCCN)C(=O)N[C@H](C(=O)O)C(C)C` [C5, HWLKV], the “stability in PBS” value [1] was “good stability in PBS”, the plasma stability [2] was “full degradation” and the “dissociation of pre-bound PICK1 from SCMSs” value [3] was “neither C5 nor TAT-(C5) could significantly dissociated PICK1 from SCMSs”.

In the case of `CCOC(=O)NC(=O)/C(C#N)=C/c1ccc(Cl)c(Cl)c1` [FSC231], the “mechanical hypersensitivity / withdrawal threshold, acute phase” value ([4]; intrathecal, two days after operation) was “did not affect withdrawal threshold”.

For `CC(C)C[C@H](NC(=O)[C@H](Cc1c[nH]c2ccccc12)NC(=O)[C@H](Cc1c[nH]cn1)NC(=O)CCOCCOCCOCCOCCOCCC(=O)N[C@@H](Cc1c[nH]cn1)C(=O)N[C@@H](Cc1c[nH]c2ccccc12)C(=O)N[C@@H](CC(C)C)C(=O)N[C@@H](CCCCN)C(=O)N[C@H](C(=O)O)C(C)C)C(=O)N[C@@H](CCCCN)C(=O)N[C@H](C(=O)O)C(C)C` [P4-(C5)2, PEG4-(HWLKV)2], the “fold increase in affinity compared to monomeric C5” value [5] was 15 fold.

For `CC(C)C[C@H](NC(=O)[C@H](Cc1c[nH]c2ccccc12)NC(=O)[C@H](Cc1cnc[nH]1)NC(=O)[C@H](CCCNC(=N)N)NC(=O)[C@H](CCCNC(=N)N)NC(=O)[C@H](CCCNC(=N)N)NC(=O)[C@H](CCC(N)=O)NC(=O)[C@H](CCCNC(=N)N)NC(=O)[C@H](CCCNC(=N)N)NC(=O)[C@H](CCCCN)NC(=O)[C@H](CCCCN)NC(=O)[C@H](CCCNC(=N)N)NC(=O)CNC(=O)[C@@H](N)Cc1ccc(O)cc1)C(=O)N[C@@H](CCCCN)C(=O)N[C@H](C(=O)O)C(C)C` [TAT-C5], the “stability in PBS” value [1] was “good stability in PBS” and the plasma stability [2] was “improved”.

In the case of `NCC1(CC(=O)O)CCCCC1` [gabapentin], the “mechanical hypersensitivity, chronic phase” value ([4]; 30 mg/kg i.p., day 14 after surgery, at 2 hours) was “full recovery from mechanical hypersensitivity”.

For “TAMRA-YGRKKRRQRRR-PEG4-(HWLKV)2 [TMR-TAT-P4-(C5)2]”, the “peptide signal in sh18 + GFP-PICK1 neurons vs control (GFP)” value [6] was “significantly increased”.

— patent US20250215052A1, “INHIBITORS OF PICK1 AND USES THEREOF” (University of Copenhagen, priority 2018, published 2025)
